Reference: PMC6471342, “Synthesis of Thymidine Phosphorylase Inhibitor Based on Quinoxaline Derivatives and Their Molecular Docking Study” (Molecules, 2019)
Like-named read-outs stand apart in the source and are kept apart here.

Molecular target: T1, thymidine phosphorylase/PD-ECGF (E. coli) (Escherichia coli, UniProt P07650)
T1 construct: purchased
Assay: Thymidine phosphorylase inhibition assay (absorbance at 290 nm)
Type: biochemical
Conditions: for thymidine phosphorylase inhibition, result in words: compared with standard 7-Deazaxanthine; for IC50: Table 1, triplicate
Protocol: Since human TP is not easy to obtain, we used commercially available recombinant E. coli TP. The primary sequence of TP is frequently preserved throughout evolution as mammalian TP is reported to share 39% sequence resemblance with the TP of E. coli. The mammalian enzyme also shared up to 70% resemblance with the active site residues, and three-dimensional structure of E. coli TP enzyme. The thymidine phosphorylase/PD-ECGF (E. coli) activity was determined by measuring the absorbance at 290 nm spectrophotometrically. The method was described in [50, 51]. In brief, the total reaction mixture of 200 µL contained 145 µL of potassium phosphate buffer (pH 7.4), 30 µL of enzyme (human and E. coli) at concentration 0.05 and 0.002 U, respectively, were incubated with 5 µL of test materials for 10 min at 25 °C in a microplate reader. After incubation, a pre-read at 290 nm was taken to deduce the absorbance of substrate particles. The substrate (20 µL, 1.5 mM), dissolved in potassium phosphate buffer, was immediately added to the plate and continuously read after 10, 20, and 30 min in a microplate reader (SpectraMax, Molecular Devices, CA, USA). All assays were performed in triplicate.
Reactions for above mentioned biological activities were carried out in triplicate. Results were then processed using SoftMax Pro 4.8 software (Molecular Devices, San Jose, CA, USA) and then by Microsoft Excel. The percent inhibition for above mentioned biological activities was calculated by following formula:Percent Inhibition = 100 − (ODtest compound/ODcontrol) × 100(1)

T1 sequence (P07650 whole entry): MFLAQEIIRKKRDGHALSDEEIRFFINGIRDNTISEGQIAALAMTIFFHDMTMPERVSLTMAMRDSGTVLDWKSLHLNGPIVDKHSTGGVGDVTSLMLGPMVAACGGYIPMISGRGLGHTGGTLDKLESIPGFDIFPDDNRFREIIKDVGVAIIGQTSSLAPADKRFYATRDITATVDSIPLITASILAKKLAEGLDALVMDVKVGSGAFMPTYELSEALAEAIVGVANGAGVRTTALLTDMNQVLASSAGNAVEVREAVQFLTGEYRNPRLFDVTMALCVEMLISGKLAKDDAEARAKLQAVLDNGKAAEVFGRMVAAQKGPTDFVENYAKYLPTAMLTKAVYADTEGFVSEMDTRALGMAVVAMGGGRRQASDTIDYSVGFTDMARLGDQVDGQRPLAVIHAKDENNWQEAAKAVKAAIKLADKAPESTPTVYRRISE

Compound | thymidine phosphorylase inhibition, result in words | IC50 (read-out: IC50 (mM ± SEM)) [mM] | IC50 (read-out: IC50 (µM ± SEM)) [mM]
Cc1cccc(-c2csc3nnc(-c4cnc5ccccc5n4)n23)c1 [Compound 10, 3-(quinoxalin-2-yl)-5-m-tolylthiazolo[2,3-c][1,2,4]triazole] | inactive | – | –
COc1ccc(-c2csc3nnc(-c4cnc5ccccc5n4)n23)cc1O [Compound 18, 2-methoxy-5-(3-(quinoxalin-2-yl)thiazolo[2,3-c][1,2,4]triazol-5-yl)phenol] | outstanding inhibition | 0.0169 ± 0.0006 | –
COc1ccc(O)c(-c2csc3nnc(-c4cnc5ccccc5n4)n23)c1 [Compound 21, 4-methoxy-2-(3-(quinoxalin-2-yl)thiazolo[2,3-c][1,2,4]triazol-5-yl)phenol] | outstanding inhibition | 0.0262 ± 0.0005 | –
Oc1ccc(-c2csc3nnc(-c4cnc5ccccc5n4)n23)cc1 [Compound 13, 4-(3-(quinoxalin-2-yl)thiazolo[2,3-c][1,2,4]triazol-5-yl)phenol] | outstanding inhibition | – | 0.0183 ± 0.00055
COc1ccc(-c2csc3nnc(-c4cnc5ccccc5n4)n23)c(O)c1 [Compound 17, 5-methoxy-2-(3-(quinoxalin-2-yl)thiazolo[2,3-c][1,2,4]triazol-5-yl)phenol] | outstanding inhibition | 0.0242 ± 0.0007 | –
Oc1ccc(-c2csc3nnc(-c4cnc5ccccc5n4)n23)c(O)c1 [Compound 14, 4-(3-(quinoxalin-2-yl)thiazolo[2,3-c][1,2,4]triazol-5-yl)benzene-1,3-diol] | outstanding inhibition | 0.0132 ± 0.0004 | –
Fc1ccccc1-c1csc2nnc(-c3cnc4ccccc4n3)n12 [Compound 1, 5-(2-flourophenyl)-3(Quinoxalin-2yl)thiazolo[2,3-c][1,2,4]triazole] | outstanding inhibition | – | 0.0136 ± 0.0004
Clc1ccccc1-c1csc2nnc(-c3cnc4ccccc4n3)n12 [Compound 4, 5-(2-chlorophenyl)-3(Quinoxalin-2yl)thiazolo[2,3-c][1,2,4]triazole] | outstanding inhibition | – | 0.0274 ± 0.0006
COc1cccc(-c2csc3nnc(-c4cnc5ccccc5n4)n23)c1 [Compound 19, 5-(3-methoxyphenyl)-3-(quinoxalin-2-yl)thiazolo[2,3-c][1,2,4]triazole] | inactive | – | –
Oc1cccc(-c2csc3nnc(-c4cnc5ccccc5n4)n23)c1 [Compound 12, 3-(3-(quinoxalin-2-yl)thiazolo[2,3-c][1,2,4]triazol-5-yl)phenol] | outstanding inhibition | – | 0.0332 ± 0.00075
Clc1cccc(-c2csc3nnc(-c4cnc5ccccc5n4)n23)c1 [Compound 5, 5-(3-chlorophenyl)-3(Quinoxalin-2yl)thiazolo[2,3-c][1,2,4]triazole] | outstanding inhibition | – | 0.0334 ± 0.0008
Clc1ccc(-c2csc3nnc(-c4cnc5ccccc5n4)n23)cc1 [Compound 6, 5-(4-chlorophenyl)-3(Quinoxalin-2yl)thiazolo[2,3-c][1,2,4]triazole] | outstanding inhibition | – | 0.0244 ± 0.0006
c1cncc(-c2csc3nnc(-c4cnc5ccccc5n4)n23)c1 [Compound 22, 5-(pyridin-3-yl)-3-(quinoxalin-2-yl)thiazolo[2,3-c][1,2,4]triazole] | inactive | – | –
O=[N+]([O-])c1ccc(-c2csc3nnc(-c4cnc5ccccc5n4)n23)cc1 [Compound 8, 5-(4-nitrophenyl)-3(Quinoxalin-2yl)thiazolo[2,3-c][1,2,4]triazole] | moderate inhibition | – | 0.0475 ± 0.0009
Cc1ccc(-c2csc3nnc(-c4cnc5ccccc5n4)n23)cc1 [Compound 11, 3-(quinoxalin-2-yl)-5-p-tolylthiazolo[2,3-c][1,2,4]triazole] | inactive | – | –
Fc1ccc(-c2csc3nnc(-c4cnc5ccccc5n4)n23)cc1 [Compound 3, 5-(4-flourophenyl)-3(Quinoxalin-2yl)thiazolo[2,3-c][1,2,4]triazole] | outstanding inhibition | – | 0.0181 ± 0.0005
c1ccc2nc(-c3nnc4scc(-c5ccncc5)n34)cnc2c1 [Compound 23, 5-(pyridin-4-yl)-3-(quinoxalin-2-yl)thiazolo[2,3-c][1,2,4]triazole] | inactive | – | –
Oc1ccccc1-c1csc2nnc(-c3cnc4ccccc4n3)n12 [Compound 24, 2-(3-(quinoxalin-2-yl)thiazolo[2,3-c][1,2,4]triazol-5-yl)phenol] | outstanding inhibition | 0.0131 ± 0.0003 | –
O=[N+]([O-])c1ccccc1-c1csc2nnc(-c3cnc4ccccc4n3)n12 [Compound 7, 5-(2-nitrophenyl)-3(Quinoxalin-2yl)thiazolo[2,3-c][1,2,4]triazole] | outstanding inhibition | – | 0.0347 ± 0.0008
Cc1ccccc1-c1csc2nnc(-c3cnc4ccccc4n3)n12 [Compound 9, 3-(quinoxalin-2-yl)-5-o-tolylthiazolo[2,3-c][1,2,4]triazole] | moderate inhibition | – | 0.0564 ± 0.0012
COc1ccc(-c2csc3nnc(-c4cnc5ccccc5n4)n23)cc1 [Compound 20, 5-(4-methoxyphenyl)-3-(quinoxalin-2-yl)thiazolo[2,3-c][1,2,4]triazole] | inactive | – | –
Oc1ccc(-c2csc3nnc(-c4cnc5ccccc5n4)n23)cc1O [Compound 16, 4-(3-(quinoxalin-2-yl)thiazolo[2,3-c][1,2,4]triazol-5-yl)benzene-1,2-diol] | outstanding inhibition | 0.0035 ± 0.0002 | –
Oc1ccc(O)c(-c2csc3nnc(-c4cnc5ccccc5n4)n23)c1 [Compound 15, 2-(3-(quinoxalin-2-yl)thiazolo[2,3-c][1,2,4]triazol-5-yl)benzene-1,4-diol] | outstanding inhibition | 0.0152 ± 0.0005 | –
Oc1cccc(-c2csc3nnc(-c4cnc5ccccc5n4)n23)c1O [Compound 25, 3-(3-(quinoxalin-2-yl)thiazolo[2,3-c][1,2,4]triazol-5-yl)benzene-1,2-diol] | – | 0.0032 ± 0.0001 | –
Fc1cccc(-c2csc3nnc(-c4cnc5ccccc5n4)n23)c1 [Compound 2, 5-(3-flourophenyl)-3(Quinoxalin-2yl)thiazolo[2,3-c][1,2,4]triazole] | outstanding inhibition | – | 0.0261 ± 0.0007
